The molecules below were run against PERK (Homo sapiens (Human), UniProt Q9NZJ5) (assay: PERK cellular assay (TR-FRET, HEK293-EGFP-eIF2α cells, tunicamycin-induced ER stress)). Conditions: tunicamycin 2 hours, read-out: Cellular IC50 (μM) (EIF2a).
Chain of PERK (Q9NZJ5 30-1116): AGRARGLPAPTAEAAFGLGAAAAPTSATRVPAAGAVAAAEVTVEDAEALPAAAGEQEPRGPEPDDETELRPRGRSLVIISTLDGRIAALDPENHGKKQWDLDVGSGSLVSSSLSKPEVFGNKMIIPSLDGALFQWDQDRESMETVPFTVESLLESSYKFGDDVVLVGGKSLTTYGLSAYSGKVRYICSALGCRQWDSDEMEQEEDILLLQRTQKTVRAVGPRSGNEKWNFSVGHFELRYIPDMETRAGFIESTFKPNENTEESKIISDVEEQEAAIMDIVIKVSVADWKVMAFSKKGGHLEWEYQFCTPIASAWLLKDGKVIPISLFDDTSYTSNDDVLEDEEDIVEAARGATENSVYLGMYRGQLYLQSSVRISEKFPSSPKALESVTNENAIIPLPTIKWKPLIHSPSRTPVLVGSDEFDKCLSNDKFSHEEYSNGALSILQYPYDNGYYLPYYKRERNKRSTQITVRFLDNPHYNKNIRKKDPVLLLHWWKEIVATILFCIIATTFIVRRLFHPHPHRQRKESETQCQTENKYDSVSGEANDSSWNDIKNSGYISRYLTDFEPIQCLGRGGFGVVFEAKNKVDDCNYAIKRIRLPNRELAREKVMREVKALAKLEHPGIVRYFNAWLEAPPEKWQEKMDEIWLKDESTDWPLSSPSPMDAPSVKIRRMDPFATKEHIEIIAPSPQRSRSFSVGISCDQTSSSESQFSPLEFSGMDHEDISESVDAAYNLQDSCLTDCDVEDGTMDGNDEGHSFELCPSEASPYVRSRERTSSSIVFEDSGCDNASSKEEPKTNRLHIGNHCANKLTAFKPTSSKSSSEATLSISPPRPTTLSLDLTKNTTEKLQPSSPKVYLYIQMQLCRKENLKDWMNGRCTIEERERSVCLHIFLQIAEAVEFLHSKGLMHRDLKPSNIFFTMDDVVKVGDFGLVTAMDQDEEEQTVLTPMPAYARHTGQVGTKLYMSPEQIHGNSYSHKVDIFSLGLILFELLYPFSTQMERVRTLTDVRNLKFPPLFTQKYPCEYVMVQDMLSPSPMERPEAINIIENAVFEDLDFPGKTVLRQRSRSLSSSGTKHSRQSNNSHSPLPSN
Format: cell-based
Experimental: Stable cell lines were created in HEK293 cells using lentiviral particles harboring an expression vector for GFP-eIF2α. Cells were selected using puromycin and enriched using fluorescence activated cell sorting against GFP. HEK293-EGFP-eIF2α cells were plated at 5000 cells/well in 384-well assay plates and incubated overnight at 37° C., 5% CO2. Inhibitor compounds were added to the wells by Echo acoustic dispensing and incubated for 30 minutes at 37° C., 5% CO2 prior to induction of ER stress by addition of tunicamycin to […] for 2 hours. Cells were lysed and TR-FRET was measured in an EnVision plate reader (PerkinElmer). FRET ratio data was normalized to signal from lysates treated with DMSO vehicle control and plotted as percent inhibition against 10-point; 3-fold dilution series of inhibitors. IC50 values were calculated using 4-parameter logistical fitting in XLFit.
With `CCc1cc(NC(=O)C(O)c2ccccc2C)ccc1-c1cnc(N)c(C(=O)NC(C)C)c1` (single isomer, unassigned) [Example 104, 2-amino-5-(2-ethyl-4-(2-hydroxy-2-(o-tolyl)acetamido)phenyl)-N-isopropylnicotinamide] the IC50 was 0.051 to 0.1 µM.
With `CCc1cc(NC(=O)C(O)c2ccccc2C)ccc1-c1cnc(N)c(C(=O)NC(C)C)c1` (single isomer, unassigned) [Example 105, 2-amino-5-(2-ethyl-4-(2-hydroxy-2-(o-tolyl)acetamido)phenyl)-N-isopropylnicotinamide] the IC50 was 0.501 to 1 µM.
`Cc1cc(NC(=O)C(O)c2cc(F)cc(F)c2)ccc1-c1cnc(N)c(C(=O)NC2CCOCC2)n1` (single isomer, unassigned) [Example 144, 3-amino-6-(4-(2-(3,5-difluorophenyl)-2-hydroxyacetamido)-2-methylphenyl)-N-(tetrahydro-2H-pyran-4-yl)pyrazine-2-carboxamide] was tested, and the IC50 was 0.501 to 1 µM.
With `Cc1cc(NC(=O)C(O)c2cc(F)cc(F)c2)ccc1-c1cnc(N)c(C(=O)NC2CCOCC2)n1` (single isomer, unassigned) [Example 145, 3-amino-6-(4-(2-(3,5-difluorophenyl)-2-hydroxyacetamido)-2-methylphenyl)-N-(tetrahydro-2H-pyran-4-yl)pyrazine-2-carboxamide] the IC50 was 0.051 to 0.1 µM.
With `COCCNC(=O)c1nc(-c2ccc(NC(=O)C(O)c3cc(F)cc(F)c3)cc2C)cnc1N` (single isomer, unassigned) [Example 147, 3-amino-6-(4-(2-(3,5-difluorophenyl)-2-hydroxyacetamido)-2-methylphenyl)-N-(2-methoxyethyl) pyrazine-2-carboxamide] the IC50 was 0.026 to 0.05 µM.
`COCCNC(=O)c1nc(-c2ccc(NC(=O)C(O)c3cc(F)cc(F)c3)cc2C)cnc1N` (single isomer, unassigned) [Example 148, 3-amino-6-(4-(2-(3,5-difluorophenyl)-2-hydroxyacetamido)-2-methylphenyl)-N-(2-methoxyethyl) pyrazine-2-carboxamide] showed an IC50 of 0.501 to 1 µM.
Molecule `Cc1cc(NC(=O)C(O)c2cc(F)cc(F)c2)ccc1-c1cnc(N)c(C(=O)NC2CCOCC2)c1` (centres unmarked) [Example 50, 2-amino-5-(4-(2-(3,5-difluorophenyl)-2-hydroxyacetamido)-2-methylphenyl)-N-(tetrahydro-2H-pyran-4-yl)nicotinamide] has an IC50 of 0.051 to 0.1 µM.
Molecule `Cc1cc(NC(=O)C(O)c2cc(F)cc(F)c2)ccc1-c1cnc(N)c(C(=O)NC2CCOCC2)c1` (centres unmarked) [Example 51, 2-amino-5-(4-(2-(3,5-difluorophenyl)-2-hydroxyacetamido)-2-methylphenyl)-N-(tetrahydro-2H-pyran-4-yl)nicotinamide] has an IC50 of 0.501 to 1 µM.
In the case of `COCCNC(=O)c1cc(-c2ccc(NC(=O)C(O)c3cc(F)cc(F)c3)cc2C)cnc1N` (centres unmarked) [Example 54, 2-amino-5-(4-(2-(3,5-difluorophenyl)-2-hydroxyacetamido)-2-methylphenyl)-N-(2-methoxyethyl) nicotinamide], the IC50 is reported as 0.051 to 0.1 µM.
Work on `COCCNC(=O)c1cc(-c2ccc(NC(=O)C(O)c3cc(F)cc(F)c3)cc2C)cnc1N` (centres unmarked) [Example 55, 2-amino-5-(4-(2-(3,5-difluorophenyl)-2-hydroxyacetamido)-2-methylphenyl)-N-(2-methoxyethyl) nicotinamide] yielded an IC50 of 1 to 2 µM.
`Cc1cc(NC(=O)C(O)c2ccccc2C)ccc1-c1cnc(N)c(C(=O)NC(C)C)c1` (centres unmarked) [Example 64, 2-amino-5-(4-(2-hydroxy-2-(o-tolyl)acetamido)-2-methylphenyl)-N-isopropylnicotinamide] showed an IC50 of 0.101 to 0.25 µM.
With `Cc1cc(NC(=O)C(O)c2ccccc2C)ccc1-c1cnc(N)c(C(=O)NC(C)C)c1` (centres unmarked) [Example 65, 2-amino-5-(4-(2-hydroxy-2-(o-tolyl)acetamido)-2-methylphenyl)-N-isopropylnicotinamide] the IC50 was 2 to 3 µM.
For `Cc1cc(NC(=O)C(O)c2cccc(C(F)(F)F)c2)ccc1-c1cnc(N)c(C(=O)NC(C)C)c1` (centres unmarked) [Example 70, 2-amino-5-(4-(2-hydroxy-2-(3-(trifluoromethyl)phenyl)acetamido)-2-methylphenyl)-N-isopropylnicotinamide], the IC50 was 0.001 to 0.025 µM.
`Cc1cc(NC(=O)C(O)c2cccc(C(F)(F)F)c2)ccc1-c1cnc(N)c(C(=O)NC(C)C)c1` (centres unmarked) [Example 71, 2-amino-5-(4-(2-hydroxy-2-(3-(trifluoromethyl)phenyl)acetamido)-2-methylphenyl)-N-isopropylnicotinamide] was tested, and the IC50 was 0.501 to 1 µM.
`Cc1ccccc1C(O)C(=O)Nc1ccc(-c2cnc(N)c(C(=O)NC(C)C)c2)c(Cl)c1` (centres unmarked) [Example 90, 2-amino-5-(2-chloro-4-(2-hydroxy-2-(o-tolyl)acetamido)phenyl)-N-isopropylnicotinamide] showed an IC50 of 0.051 to 0.1 µM.
`Cc1ccccc1C(O)C(=O)Nc1ccc(-c2cnc(N)c(C(=O)NC(C)C)c2)c(Cl)c1` (centres unmarked) [Example 91, 2-amino-5-(2-chloro-4-(2-hydroxy-2-(o-tolyl)acetamido)phenyl)-N-isopropylnicotinamide] gave an IC50 of 0.251 to 0.5 µM.
`Cc1cccc(C(O)C(=O)Nc2ccc(-c3cnc(N)c(C(=O)NC(C)C)c3)c(Cl)c2)c1` (centres unmarked) [Example 92, 2-amino-5-(2-chloro-4-(2-hydroxy-2-(m-tolyl)acetamido)phenyl)-N-isopropylnicotinamide] was tested, and the IC50 was 0.001 to 0.025 µM.
`Cc1cccc(C(O)C(=O)Nc2ccc(-c3cnc(N)c(C(=O)NC(C)C)c3)c(Cl)c2)c1` (centres unmarked) [Example 93, 2-amino-5-(2-chloro-4-(2-hydroxy-2-(m-tolyl)acetamido)phenyl)-N-isopropylnicotinamide] was tested, and the IC50 was 0.101 to 0.25 µM.
For `Cc1cc(NC(=O)C(O)c2cc(F)cc(F)c2)ccc1-c1cnc(N)c(C(=O)NC2CCC2)n1` (centres unmarked) [Example 140, 3-amino-N-cyclobutyl-6-(4-(2-(3,5-difluorophenyl)-2-hydroxyacetamido)-2-methylphenyl) pyrazine-2-carboxamide], the IC50 was 0.026 to 0.05 µM.
`Cc1cc(NC(=O)C(O)c2cc(F)cc(F)c2)ccc1-c1cnc(N)c(C(=O)NC2CCC2)n1` (centres unmarked) [Example 141, 3-amino-N-cyclobutyl-6-(4-(2-(3,5-difluorophenyl)-2-hydroxyacetamido)-2-methylphenyl) pyrazine-2-carboxamide] showed an IC50 of 0.101 to 0.25 µM.
`Cc1cc(NC(=O)C(O)c2cc(F)cc(F)c2)ccc1-c1cnc(N)c(C(=O)NC2COC2)n1` (centres unmarked) [Example 142, 3-amino-6-(4-(2-(3,5-difluorophenyl)-2-hydroxyacetamido)-2-methylphenyl)-N-(oxetan-3-yl)pyrazine-2-carboxamide] showed an IC50 of 1 to 2 µM.
Molecule `Cc1cc(NC(=O)C(O)c2cc(F)cc(F)c2)ccc1-c1cnc(N)c(C(=O)NC2COC2)n1` (centres unmarked) [Example 143, 3-amino-6-(4-(2-(3,5-difluorophenyl)-2-hydroxyacetamido)-2-methylphenyl)-N-(oxetan-3-yl)pyrazine-2-carboxamide] has an IC50 of 0.026 to 0.05 µM.
`CC(C)NC(=O)c1nc(-c2ccc(NC(=O)C(O)c3cc(F)cc(F)c3)cc2Cl)cnc1N` (centres unmarked) [Example 162, 3-amino-6-(2-chloro-4-(2-(3,5-difluorophenyl)-2-hydroxyacetamido)phenyl)-N-isopropylpyrazine-2-carboxamide] gave an IC50 of 0.101 to 0.25 µM.
`CC(C)NC(=O)c1nc(-c2ccc(NC(=O)C(O)c3cc(F)cc(F)c3)cc2Cl)cnc1N` (centres unmarked) [Example 163, 3-amino-6-(2-chloro-4-(2-(3,5-difluorophenyl)-2-hydroxyacetamido)phenyl)-N-isopropylpyrazine-2-carboxamide] gave an IC50 of 0.051 to 0.1 µM.
Work on `Nc1ncc(-c2ccc(NC(=O)C(O)c3cc(F)cc(F)c3)cc2Cl)nc1C(=O)NC1CC1` (centres unmarked) [Example 166, 3-amino-6-(2-chloro-4-(2-(3,5-difluorophenyl)-2-hydroxyacetamido)phenyl)-N-cyclopropyl-pyrazine-2-carboxamide] yielded an IC50 of 0.026 to 0.05 µM.
`Nc1ncc(-c2ccc(NC(=O)C(O)c3cc(F)cc(F)c3)cc2Cl)nc1C(=O)NC1CC1` (centres unmarked) [Example 167] gave an IC50 of 0.101 to 0.25 µM.
In the case of `Cc1ccccc1CC(=O)Nc1ccc(-c2cnc(N)c(C(=O)NC(C)C)c2)c(C)c1` [Example 195, 2-amino-N-isopropyl-5-(2-methyl-4-(2-(o-tolyl)acetamido)phenyl)nicotinamide], the IC50 is reported as 0.251 to 0.5 µM.
Work on `Cc1cccc(CC(=O)Nc2ccc(-c3cnc(N)c(C(=O)NC(C)C)c3)c(C)c2)c1` [Example 196, 2-amino-N-isopropyl-5-(2-methyl-4-(2-(m-tolyl)acetamido)phenyl)nicotinamide] yielded an IC50 of 0.251 to 0.5 µM.

These molecules were tested against EIF2AK3 (PERK) catalytic domain (amino acids 536-1116) (Homo sapiens (Human), UniProt Q9NZJ5) (assay: PERK in vitro activity assay (isolated), TR-FRET kinase assay). Conditions: isolated PERK enzyme, 1.5 μM ATP, GFP-eIF2a substrate; read-out: Biochemical IC50.
Chain of EIF2AK3 (PERK) catalytic domain (amino acids 536-1116) (Q9NZJ5 536-1116): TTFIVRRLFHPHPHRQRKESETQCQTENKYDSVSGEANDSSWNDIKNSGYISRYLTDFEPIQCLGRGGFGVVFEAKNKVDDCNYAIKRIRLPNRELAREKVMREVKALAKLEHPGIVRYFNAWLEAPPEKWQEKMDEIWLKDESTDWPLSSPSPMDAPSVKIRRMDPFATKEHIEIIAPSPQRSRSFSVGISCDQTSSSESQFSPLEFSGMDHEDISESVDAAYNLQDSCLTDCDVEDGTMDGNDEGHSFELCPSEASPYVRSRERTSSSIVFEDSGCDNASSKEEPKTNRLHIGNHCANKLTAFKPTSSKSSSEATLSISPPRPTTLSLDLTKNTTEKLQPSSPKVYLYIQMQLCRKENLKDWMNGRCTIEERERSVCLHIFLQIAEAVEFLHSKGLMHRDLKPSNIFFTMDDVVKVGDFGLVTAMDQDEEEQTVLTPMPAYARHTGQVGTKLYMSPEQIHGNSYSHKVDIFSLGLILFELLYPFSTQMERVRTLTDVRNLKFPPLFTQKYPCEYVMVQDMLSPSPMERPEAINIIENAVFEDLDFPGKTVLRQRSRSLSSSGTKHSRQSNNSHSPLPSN
Text: PERK In Vitro Activity Assay (Isolated):
In vitro Inhibition of PERK Enzyme Activity (isolated) Recombinant human EIF2AK2 (PKR) catalytic domain (amino acids 252-551), EIF2AK3 (PERK) catalytic domain (amino acids 536-1116), GFP-eIF2a substrate, and Terbium-labelled phospho-eIF2a antibody is obtained (Invitrogen, Carlsbad, CA).
Express and purify HIS-SUMO-GCN2 catalytic domain (amino acids 584-1019) from E. coli. Perform TR-FRET kinase assays in the absence or presence of inhibitors in a reaction buffer consisting of 50 mM HEPES, pH 7.5, 10 mM MgCb, 1.0 mM EGTA, and 0.01% Brij-35, and 100-200 nM GFP-eIF2a substrate. […] Add test compound, initiate the reaction by addition of enzyme, and incubate at room temperature for 45 minutes. Stop the reaction by addition of EDTA to a final concentration of 10 mM, add Terbium-labelled phospho-eIF2a antibody at a final concentration of 2 nM, and incubate for 90 minutes. Monitor the resulting fluorescence in an EnVison® Multilabel reader (PerkinElmer, Waltham, MA). Determine TR-FRET ratios and the resulting IC50 values using a 4-parameter nonlinear logistic equation as shown: Y=(A+((B−A)/(1+((C/x)[…])))) where, Y=% specific inhibition, A=Bottom of the curve, B=Top of the curve, C=absolute IC50 (concentration causing 50% inhibition), and D=hill slope.
`CCc1ccccc1CC(=O)Nc1ccc(-c2cnc(N)c(C(=O)NC(C)C)c2)c(C)c1` [Example 204, 2-amino-5-(4-(2-(2-ethylphenyl)acetamido)-2-methylphenyl)-N-isopropylnicotinamide] showed an IC50 of 101 to 250 nM.

From patent US12473296B2, “Perk inhibiting compounds” (HiberCell, Inc., priority 2019, dated 2025)
